Reference: PubChem BioAssay AID1419 (Emory University Molecular Libraries Screening Center, 2008)
The source made the active and inactive calls. The rule behind the calls is not given here.

Assay: blockers of an Epstein-Barr virus protein-peptide interaction – biochemical, fluorescence polarization, dose response (AID 1419)
Settings: cell-free protein-peptide binding, 2 h; for fold change: measured here: P channel fold over control, at 54 µM

Work on `Cn1c(=O)c(NC2CCCCC2)c2c3c(cccc31)C(=O)c1ccccc1-2` yielded an IC50 of 0.88 µM and a fold change of 34.7.
`Cc1cc(C)c2cc3c(ccn3C3OC[C@H](O)[C@H](O)[C@H]3O)cc2n1` (stereo not given in full) gave an IC50 of 3.78 µM and a fold change of 2.96.
`CCOC(=O)c1cc2n(c1N)-c1ccccc1C2=O` gave an IC50 of under 0.42 µM and a fold change of 104.
`CC(=O)Nc1ccc2nc3c(=O)n(C)c(=O)n(C)c3nc2c1` showed an IC50 of 1 µM and a fold change of 4.35.
For `COc1ccc(NC(=O)NC(=O)c2cc(OCC(F)(F)F)ccc2OCC(F)(F)F)cc1`, the IC50 was > 54 µM (inactive) and the fold change was 0.943.
`CN(N=Nc1ccc([N+](=O)[O-])cc1)c1ccccc1` showed an IC50 of 3.98 µM and a fold change of 61.8.
Work on `CCN(CC)c1ccc2cc(NC(=O)CCC(=O)O)c(=O)oc2c1` yielded an IC50 of 1.17 µM and a fold change of 12.
For `Cc1ccc(OCCn2c(C3CC(=O)N(Cc4ccccc4)C3)nc3ccccc32)cc1` (stereo not given), the IC50 was > 54 µM (inactive) and the fold change was 1.15.
In the case of `CCN(c1ccc(N=Cc2c(O)n(Cc3ccc(OC)cc3)c(=O)c3ccccc23)cc1)C(C)C`, the IC50 is reported as 2.17 µM and the fold change is reported as 132.
For `CC(=O)c1ccc(Nc2c3c(nc4ccccc24)CCCC3)cc1`, the IC50 was > 54 µM (inactive) and the fold change was 0.95.
For `CCC(C)NC(=O)c1ccc(CSCc2cccc(F)c2)o1` (stereo not given), the IC50 was > 54 µM (inactive) and the fold change was 1.08.
For `CC[C@@H](CO)NC(=O)[C@@H]1C=C2c3cccc4c3c(cn4C)C[C@H]2N(C)C1`, the IC50 was > 54 µM (inactive) and the fold change was 1.44.
In the case of `CN1C(=O)/C(=C2\SC(=S)N(CCCCCC(=O)O)C2=O)c2ccccc21`, the IC50 is reported as 52.1 µM (inactive) and the fold change is reported as 1.07.
With `CN1C[C@H](CO)C=C2c3cccc4[nH]cc(c34)C[C@H]21` the IC50 was 12.4 µM and the fold change was 1.62.
For `O=C(COC(=O)c1c2c(nc3ccccc13)/C(=C/c1ccco1)CC2)NC1CCCC1`, the IC50 was > 54 µM (inactive) and the fold change was 2.02.
With `COc1ccc(NC(=O)CSc2nc3c(c(-c4cccs4)c2C#N)CN(C)CC3)cc1OC` the IC50 was > 54 µM (inactive) and the fold change was 1.37.
With `COC(=O)CN1C(=S)N(c2ccc(OC)cc2)C(=O)/C1=C/c1ccc(N2CCOCC2)cc1` the IC50 was 6.67 µM and the fold change was 2.83.
`O=C(/C(=C(\[O-])c1ccccc1)[n+]1ccc2ccccc2c1)c1ccccc1` showed an IC50 of 4.31 µM and a fold change of 3.02.
In the case of `COc1ccc2nc(N3CCC(C)CC3)c(C#N)cc2c1`, the IC50 is reported as 9.17 µM and the fold change is reported as 1.94.
With `CNC(=S)NN(c1ccccc1)c1ccccc1` the IC50 was > 54 µM (inactive) and the fold change was 1.01.
With `S=C(Nc1ccc(N2CCOCC2)cc1)Nc1ccc2nc(-c3ccco3)c(-c3ccco3)nc2c1` the IC50 was 3.86 µM and the fold change was 3.7.
For `CCCCCn1c(N)c(-c2nc3ccccc3o2)c2c([N+](=O)[O-])nn(CC)c(=O)c21`, the IC50 was > 54 µM (inactive) and the fold change was 0.747.
`CCOC(=O)c1[nH]cnc1N=Nc1c(O)ccc2ccccc12` gave an IC50 of 7.35 µM and a fold change of 2.68.
With `N#CC(c1nc2ccccc2nc1N1CCCC1)S(=O)(=O)c1ccccc1` (stereo not given) the IC50 was > 54 µM (inactive) and the fold change was 1.79.
With `Cc1cc(C=C2C(=O)NC(=S)NC2=O)c(C)n1-c1ccc2c(c1)OCO2` the IC50 was 43.5 µM (inactive) and the fold change was 2.39.
`O=C(c1ccc(Cl)cc1)C1C2C(=O)N(c3ccccc3)C(=O)C2C2CCCN21` (stereo not given) gave an IC50 of under 0.42 µM and a fold change of 8.
Compound `O=C(O)CCC(=O)NCCC1=c2ccccc2=N/C1=C\c1c(O)n(Cc2ccc(F)cc2)c(=S)[nH]c1=O` has an IC50 of 4.53 µM and a fold change of 1.16.
With `COc1cc2c(cc1NC(=O)CN1C(=O)NC3(CCc4ccccc43)C1=O)oc1ccccc12` (stereo not given) the IC50 was > 54 µM (inactive) and the fold change was 0.93.
For `CS(=O)(=O)n1nc(-c2ccc(Cl)cc2)nc1SCc1ccccc1`, the IC50 was > 54 µM (inactive) and the fold change was 1.16.
`CN1CCN(c2ccc([N+](=O)[O-])c3no[n+]([O-])c23)CC1` showed an IC50 of 1.32 µM and a fold change of 11.6.
`COc1ccc(NS(=O)(=O)c2ccc(Cl)s2)cn1` showed an IC50 of 4.58 µM and a fold change of 3.24.
Compound `N#CC(C#N)=Cc1ccc(-c2ccccc2F)o1` has an IC50 of 5.06 µM and a fold change of 18.8.
In the case of `O=C(C1=NN(c2ccccc2)C2C(=O)N(c3ccccc3Cl)C(=O)C12)c1ccccc1` (stereo not given), the IC50 is reported as 6.16 µM and the fold change is reported as 8.43.
Work on `O=C(C1=C(O)C(=O)N(c2nccs2)C1c1ccccc1)c1cc2ccccc2o1` (stereo not given) yielded an IC50 of under 0.42 µM and a fold change of 161.
Work on `COc1cc(/C=C2\SC(=O)N(c3cccc(Cl)c3)C2=O)cc([N+](=O)[O-])c1O` yielded an IC50 of 3.51 µM and a fold change of 1.04.
Compound `COc1cccc(C2C3CN(C)CC=C3C(C#N)=C(N)C2(C#N)C#N)c1OC` (stereo not given) has an IC50 of 0.83 µM and a fold change of 9.89.
With `Cc1cc[n+](-c2[nH]c(=O)sc2/C=N/NC([S-])=Nc2ccccc2)cc1C` the IC50 was > 54 µM (inactive) and the fold change was 1.95.
Compound `Nc1ccc(N)c(C(=O)O)c1` has an IC50 of 3.76 µM and a fold change of 2.6.
With `COc1cc(-c2ccc(Nc3ccccc3C(=O)O)c(OC)c2)ccc1Nc1ccccc1C(=O)O` the IC50 was > 54 µM (inactive) and the fold change was 0.9.
With `COc1ccccc1NC(=O)CC(c1ccc(OC(C)C)cc1)c1ccccc1OC` (stereo not given) the IC50 was > 54 µM (inactive) and the fold change was 0.927.
In the case of `O=C(N/N=C/c1cc(Cl)cc(Cl)c1O)c1ccncc1`, the IC50 is reported as 1.81 µM and the fold change is reported as 5.72.
Compound `N=C1CCC(=N)c2c1c(O)c1ccccc1c2O` has an IC50 of under 0.42 µM and a fold change of 41.5.
`NS(=O)(=O)c1ccc(N/N=C/c2ccc(O)c(O)c2O)c([N+](=O)[O-])c1` gave an IC50 of 3.19 µM and a fold change of 1.05.
`COc1ccc(-c2c(C#N)c(N)nc3sc(C(=O)c4ccc(C)cc4)c(N)c23)cc1` showed an IC50 of 23.5 µM and a fold change of 5.33.
In the case of `CCOC(=O)Cc1csc(SCC(=O)Nc2sc3c(c2C(N)=O)CCC3)n1`, the IC50 is reported as > 54 µM (inactive) and the fold change is reported as 1.09.
With `CCCn1c(O)c(N=Nc2ccc3ccccc3n2)c2ccccc21` the IC50 was > 54 µM (inactive) and the fold change was 1.5.
`Fc1ccc(NCc2cccnc2)cc1F` showed an IC50 of 2.14 µM and a fold change of 3.89.
With `CC(C)Oc1ccc(NC(=O)CCC(=O)O)cc1` the IC50 was > 54 µM (inactive) and the fold change was 1.01.
For `O=C(O)/C=C/c1cn(-c2ccccc2)nc1-c1ccc(-c2ccc([N+](=O)[O-])cc2)o1`, the IC50 was 5.25 µM and the fold change was 2.34.
In the case of `CCN1CC=C2C(C#N)=C(N)C(C#N)(C#N)C(c3cc(Cl)ccc3Cl)C2C1` (stereo not given), the IC50 is reported as > 54 µM (inactive) and the fold change is reported as 4.31.
`C=CCOc1cccc(C2C(C(=O)c3ccc(C)o3)=C(O)C(=O)N2c2nccs2)c1` (stereo not given) showed an IC50 of under 0.42 µM and a fold change of 4.84.
For `O=C(COC(=O)c1ccc(NS(=O)(=O)c2cccs2)cc1)NCc1ccco1`, the IC50 was > 54 µM (inactive) and the fold change was 1.01.
In the case of `CCOc1ccc(-c2nn(-c3ccccc3)cc2/C=C2\SC(=S)N(C3CCS(=O)(=O)C3)C2=O)cc1` (stereo not given), the IC50 is reported as 2.12 µM and the fold change is reported as 10.9.
For `Cc1ccc(/C=C/C(=O)OCc2nc(N)nc(Nc3ccccc3C)n2)o1`, the IC50 was > 54 µM (inactive) and the fold change was 0.917.
For `CCOc1ccc(-c2csc(NC(=O)CSC3=NC(=O)CN3C(C)=O)n2)c2ccccc12`, the IC50 was > 54 µM (inactive) and the fold change was 0.947.
`O=C(Nc1cccc(Cl)c1)c1cc(N=Nc2ccc([N+](=O)[O-])cc2Cl)ccc1O` showed an IC50 of 17.7 µM and a fold change of 0.99.
With `Cc1ccc[n+](-c2[nH]c(=O)sc2/C=N/NC(=O)c2ccccc2[O-])c1` the IC50 was 34.2 µM (inactive) and the fold change was 1.69.
For `O=C1CCCC2=C1Sc1ccccc1N2`, the IC50 was 5.07 µM and the fold change was 1.99.
With `C(=N\N1CCOCC1)/c1nc(-c2ccccc2)n2ccccc12` the IC50 was 26.6 µM and the fold change was 4.71.
In the case of `Cc1nn(C)c(C)c1N1C(=O)c2cccc3c(N)ccc(c23)C1=O`, the IC50 is reported as under 0.42 µM and the fold change is reported as 203.
With `Cc1ccc(C)c(-n2c3nc(=O)[nH]c(=O)c-3cc3cc([N+](=O)[O-])ccc32)c1` the IC50 was 8.3 µM and the fold change was 2.52.
In the case of `CSC1=N/C(=C\c2ccccc2F)C(=O)S1`, the IC50 is reported as > 54 µM (inactive) and the fold change is reported as 1.05.
`COc1ccc(-c2cc(C(F)(F)F)c3c(n2)sc2c(O)cc(=O)[nH]c23)c(OC)c1` gave an IC50 of 3.77 µM and a fold change of 3.12.
`O=C(COc1ccc(/C=N/NC(=O)c2ccc(O)cc2)cc1)Nc1ccc([N+](=O)[O-])cc1` showed an IC50 of 2.97 µM and a fold change of 0.957.
With `Oc1ccc2ccccc2c1N=Nc1ccc(F)cc1` the IC50 was > 54 µM (inactive) and the fold change was 1.24.
With `CCCN1C(=O)/C(=C\C=C2\N(CC)c3ccccc3C2(C)C)SC1=S` the IC50 was 3.39 µM and the fold change was 20.
For `O=Cc1cnc(N2CCCCC2)s1`, the IC50 was > 54 µM (inactive) and the fold change was 1.06.
`O=C1c2cccc3c(O)ccc(c23)C(=O)N1Cc1ccccc1` showed an IC50 of under 0.42 µM and a fold change of 138.
Work on `O=C(OCCN1C(=O)c2cccc3c(N4CCOCC4)ccc(c23)C1=O)c1ccc(Cl)cc1Cl` yielded an IC50 of 1.81 µM and a fold change of 84.3.
With `O=C(O)c1ccc2c3c(ncnc13)-c1ccccc1C2=O` the IC50 was > 54 µM (inactive) and the fold change was 1.83.
With `O=C1Nc2ccc(Cl)cc2C12Nc1ccccc1-c1nnc(SCc3ccccc3F)nc1O2` (stereo not given) the IC50 was 3.05 µM and the fold change was 14.3.
`Cc1cc(C=C2C(=O)c3ccccc3C2=O)c(C)n1-c1ccc(Cl)cc1` showed an IC50 of 8.5 µM and a fold change of 6.3.
Compound `COc1ccccc1N1C(=O)C2C(C(=O)c3ccccc3)=NN(c3ccccc3)C2C1=O` (stereo not given) has an IC50 of 8.66 µM and a fold change of 8.64.
With `CCCN1C(=O)c2cccc3c(N4CCCCC4)ccc(c23)C1=O` the IC50 was > 54 µM (inactive) and the fold change was 15.2.
With `Cc1cccc(-n2c(SCc3cc(=O)n4ccsc4n3)nc3ccccc32)c1` the IC50 was 2.79 µM and the fold change was 1.78.
With `CCOC(=O)c1c(=O)n(O)c2ccc(OC)cc2[n+]1[O-]` the IC50 was 8.11 µM and the fold change was 1.8.
With `O=C(Nc1nnc(Cc2ccccc2)s1)c1cnccn1` the IC50 was > 54 µM (inactive) and the fold change was 1.06.
In the case of `CCN1CC=C2C(C1)C(c1ccc(Cl)s1)C(C#N)=C(N)C2(C#N)C#N` (stereo not given), the IC50 is reported as 0.95 µM and the fold change is reported as 9.28.
With `CCOC(=O)c1oc2cc(OCC(=O)OC)ccc2c(=O)c1-c1ccc(OC)c(OC)c1` the IC50 was > 54 µM (inactive) and the fold change was 0.99.
`COc1ccc(-n2c(C)cc(/C=C3/SC(=S)N(C)C3=O)c2C)cc1` showed an IC50 of 23.5 µM and a fold change of 7.53.
